Data from article PMC8570331, “8-Hydroxyquinoline-Amino Acid Hybrids and Their Half-Sandwich Rh and Ru Complexes: Synthesis, Anticancer Activities, Solution Chemistry and Interaction with Biomolecules” (International Journal of Molecular Sciences, 2021).
Read-outs that look alike come from different tables or passages of the source.

Experiments:
[1] = Distribution coefficients, shake-flask n-octanol/buffered aqueous solution; type: physicochemical; conditions: pH 7.4, n-octanol/buffer, in 100 mM KCl, read-out: logD7.4
Experimental: It is worth noting that these amino acid hybrids have excellent water solubility due to their zwitterionic form, unlike most 8-hydroxyquinolines.
Distribution coefficients of the ligands as well as of the complexes were determined at pH = 7.4 using the traditional shake-flask method in n-octanol/buffered aqueous solution (20 mM phosphate) at different chloride ion concentrations (4, 24 and 100 mM) using UV-vis spectrophotometry for the analysis. The measurement and data evaluation were performed as described in our former work.

[2] = Proton dissociation constants of the ligands (pH-potentiometry, UV-vis, 1H NMR titrations); type: physicochemical; conditions: for pKa: aqueous solution, I = 0.2 M KNO3, T = 25.0 °C
Experimental: pH-potentiometric measurements were carried out at 25.0 ± 0.1 °C in water in the pH range between 2.0 and 11.5 and at a constant ionic strength of 0.2 M KNO3. The titrations were performed in a carbonate-free KOH solution (0.20 M). The exact concentrations of HNO3 and KOH solutions were determined by pH-potentiometric titrations. An Orion 710A pH-meter equipped with a Metrohm combined electrode (type 6.0234.100) and a Metrohm 665 Dosimat burette were used for the pH-potentiometric measurements. […] The average water ionization constant, pKw, was determined as 13.76 ± 0.01, which is in good agreement with the literature data. The initial volume of the samples was 5.0 mL. The ligand concentration was 1.75 or 2.0 mM. Samples were degassed by bubbling purified argon through them for about 10 min prior to the measurements, and the inert gas was also passed over the solutions during the titrations. The computer program Hyperquad2013 [46] was utilized to establish the stoichiometry of the species and to calculate the equilibrium constants, similarly to that performed in our previous works.
(§1) Agilent Cary 8454 diode array spectrophotometer was utilized to obtain UV-vis spectra in the wavelength range 190–1100 nm. The path length (ℓ) was 1 cm in most cases (the actual ℓ is always indicated in the legends of the figures). The concentrations of the ligands and complexes were between 88 and 240 µM. For HSA and ct-DNA containing samples, complex concentrations were 100 µM, and 0.5 and 2 equiv. biomolecule were added for kinetic studies, respectively. Individual samples contained 0–20 µM HSA and 0–1.75 mM (nucleotide) ct-DNA. Spectra were always background corrected. The computer program HypSpec was used to obtain stability constants.
(§2) Bruker Avance III HD Ascend 500 Plus instrument (Billerica, MA, USA) was used for NMR studies. ^1H NMR spectroscopic measurements were carried out with a WATERGATE water suppression pulse scheme in the presence of 10% (v/v) D2O in most cases. DSS internal standard was added to samples to obtain reference peaks. Complex concentrations were 0.5 mM or 1.0 mM, and 0.5 equiv. HSA was added. ^1H NMR titrations were carried out in the presence of 0.2 M KNO3. With the FHA model peptide, the measurements were performed at 0.5 or 1 mM metal complex concentrations, and 1:1, 1:2 or 2:1 peptide-to-metal complex ratios were applied. The computer program HypSpec was used to obtain stability constants.

[3] = Rate of complex formation followed by UV-vis; type: physicochemical; conditions: pH 0.7, equimolar ligand and [M(arene)(H2O)3]2+
Experimental: The complex formation processes were followed in the absence of chloride ions, similar to our previous studies, to obtain comparative data. Time dependence of UV-vis spectra recorded for the equimolar solution of the ligand and [M(arene)(H2O)3]^2+ at pH 0.7 and 4.1 was followed. The charge-transfer band in the 340–500 nm region is a good indicator for complexation. […] The equilibration time decreased to <2 min for both RhCp* complexes at pH 4.1, while ~1.5 h was needed for the RuCym complexes, as it is shown in Figure S18. Although, in the isolated solid complexes, the neutral ligands are coordinated, in solution under this condition, the formation of complexes with the general formula [M(arene)(HQCl-D-(h)ProH−1)(H2O)]^+ is expected due to the deprotonation of the non-coordinating carboxyl group. In summary, these findings clearly indicate the high stability of the title complexes and the considerable difference in the rate of complex formation with the two types of metal ions.
Agilent Cary 8454 diode array spectrophotometer was utilized to obtain UV-vis spectra in the wavelength range 190–1100 nm. The path length (ℓ) was 1 cm in most cases (the actual ℓ is always indicated in the legends of the figures). The concentrations of the ligands and complexes were between 88 and 240 µM. […]

[4] = Formation constants of RhCp* complexes by ligand displacement with 2-picolylamine; type: physicochemical; conditions: pH 7.4, displacement by 2-picolylamine, UV-vis, chloride-free
From the text: Besides 2-picolylamine, the rigid aromatic 1,10-phenantroline (phen, Figure 6) or the excess of the 8-hydroxyquinoline ligand itself (Figure S20) also results in the loss of p-cymene. Two main processes were seen upon the addition of two equiv. phen to the complex (Figure 6). The first step is most probably the loss of the arene ring and the formation of a mixed-ligand complex [Ru(II)(HQCl-D-ProH−1)(phen)(H2O)2]^+ (λmax = 500 nm), which is followed by the slower binding of the second phen.
as §1

[5] = Solution stability of the complexes by 1H NMR; type: physicochemical; conditions: pH 0.7, 24 h equilibration, 500 μM
Experimental: as §2

[6] = system: human serum albumin (HSA); experiment: CD spectroscopy of HSA secondary structure; type: binding; conditions: up to 5 equivalents complex, 50% without complex
Experimental: Possible changes in the secondary structure of HSA due to its interaction with the RhCp* and RuCym complexes of HQCl-D-hPro were investigated by CD spectroscopy. HSA is mostly composed of α-helices, and its CD spectrum can be characterized by two negative bands (208 and 222 nm). […] Only at higher complex excess (>10) we observed somewhat larger changes; however, such protein-to-complex ratios are far from the biologically relevant conditions.
CD spectroscopy experiments were performed by a JASCO-J-1500 (ABL&E–JASCO Hungary Ltd., Budapest, Hungary) spectrometer using 0.2 or 1 cm optical path length in the wavelength range from 200 to 250 or to 350 nm. The scanning speed was 200 nm/min. The analytical concentration of HSA and ct-DNA was constant (2 and 98 µM, respectively), and the concentration of the complexes was varied (0–26 and 0–47 µM, respectively).

SMILES: O=C(O)[C@H]1CCCCN1Cc1cc(Cl)c2cccnc2c1O [HQCl-D-hPro, (R)-5-chloro-7-((homoproline-1-yl)methyl)8-hydroxyquinoline]
- logD [1]: 0.36
- pKa ([2]; 1H NMR, read-out: pKa (NhPro/ProH+)): > 11
- pKa ([2]; 1H NMR, read-out: pKa (NqH+)): 2.52 ± 0.03
- pKa ([2]; 1H NMR, read-out: pKa (OH)): 7.54 ± 0.02
- pKa ([2]; UV-vis, read-out: pKa (NhPro/ProH+)): 11.43 ± 0.01
- pKa ([2]; UV-vis, read-out: pKa (NqH+)): 2.43 ± 0.01
- pKa ([2]; UV-vis, read-out: pKa (OH)): 7.49 ± 0.04
- pKa ([2]; pH-potentiometry, read-out: pKa (NhPro/ProH+)): > 11
- pKa ([2]; pH-potentiometry, read-out: pKa (NqH+)): 2.42 ± 0.04
- pKa ([2]; pH-potentiometry, read-out: pKa (OH)): 7.52 ± 0.06
- fraction of the negatively charged species (O−, COO−, NhPro/ProH+) ([2]; at pH 7.4): 42%

SMILES: Cc1c(C)c(C)[c-](C)c1C.O=C(O)[C@H]1CCC[NH+]1Cc1cc(Cl)c2cccnc2c1[O-].[Cl-].[Cl-].[Rh+3] [RhCp*–HQCl-D-Pro, [RhCp*(HQCl-D-Pro)Cl]Cl]
- time to reach complex formation equilibrium [3]: ~ 30 min
- stability constant logK of the RhCp* complex [4]: 13.48 ± 0.03

SMILES: Cc1c(C)c(C)[c-](C)c1C.O=C(O)[C@H]1CCCC[NH+]1Cc1cc(Cl)c2cccnc2c1[O-].[Cl-].[Cl-].[Rh+3] [RhCp*–HQCl-D-hPro, [RhCp*(HQCl-D-hPro)Cl]Cl]
- time to reach complex formation equilibrium [3]: ~ 3 min
- fraction of complex dissociated [5]: ~ 3%
- stability constant logK of the RhCp* complex [4]: 13.35 ± 0.03
- α-helix content of HSA in the presence of the complex [6]: 47%

SMILES: Cc1ccc(C(C)C)cc1.O=C(O)[C@H]1CCCC[NH+]1Cc1cc(Cl)c2cccnc2c1[O-].[Cl-].[Cl-].[Ru+2] [RuCym–HQCl-D-hPro, [RuCym(HQCl-D-hPro)Cl]Cl]
- fraction of complex dissociated [5]: ~ 2%
- α-helix content of HSA in the presence of the complex [6]: 46%
